This test deals with EGFR (UniProt P00533).

Values after ≈ are worked out from the molar mass of the structure shown.

Sequence of EGFR (P00533 whole entry, looked up): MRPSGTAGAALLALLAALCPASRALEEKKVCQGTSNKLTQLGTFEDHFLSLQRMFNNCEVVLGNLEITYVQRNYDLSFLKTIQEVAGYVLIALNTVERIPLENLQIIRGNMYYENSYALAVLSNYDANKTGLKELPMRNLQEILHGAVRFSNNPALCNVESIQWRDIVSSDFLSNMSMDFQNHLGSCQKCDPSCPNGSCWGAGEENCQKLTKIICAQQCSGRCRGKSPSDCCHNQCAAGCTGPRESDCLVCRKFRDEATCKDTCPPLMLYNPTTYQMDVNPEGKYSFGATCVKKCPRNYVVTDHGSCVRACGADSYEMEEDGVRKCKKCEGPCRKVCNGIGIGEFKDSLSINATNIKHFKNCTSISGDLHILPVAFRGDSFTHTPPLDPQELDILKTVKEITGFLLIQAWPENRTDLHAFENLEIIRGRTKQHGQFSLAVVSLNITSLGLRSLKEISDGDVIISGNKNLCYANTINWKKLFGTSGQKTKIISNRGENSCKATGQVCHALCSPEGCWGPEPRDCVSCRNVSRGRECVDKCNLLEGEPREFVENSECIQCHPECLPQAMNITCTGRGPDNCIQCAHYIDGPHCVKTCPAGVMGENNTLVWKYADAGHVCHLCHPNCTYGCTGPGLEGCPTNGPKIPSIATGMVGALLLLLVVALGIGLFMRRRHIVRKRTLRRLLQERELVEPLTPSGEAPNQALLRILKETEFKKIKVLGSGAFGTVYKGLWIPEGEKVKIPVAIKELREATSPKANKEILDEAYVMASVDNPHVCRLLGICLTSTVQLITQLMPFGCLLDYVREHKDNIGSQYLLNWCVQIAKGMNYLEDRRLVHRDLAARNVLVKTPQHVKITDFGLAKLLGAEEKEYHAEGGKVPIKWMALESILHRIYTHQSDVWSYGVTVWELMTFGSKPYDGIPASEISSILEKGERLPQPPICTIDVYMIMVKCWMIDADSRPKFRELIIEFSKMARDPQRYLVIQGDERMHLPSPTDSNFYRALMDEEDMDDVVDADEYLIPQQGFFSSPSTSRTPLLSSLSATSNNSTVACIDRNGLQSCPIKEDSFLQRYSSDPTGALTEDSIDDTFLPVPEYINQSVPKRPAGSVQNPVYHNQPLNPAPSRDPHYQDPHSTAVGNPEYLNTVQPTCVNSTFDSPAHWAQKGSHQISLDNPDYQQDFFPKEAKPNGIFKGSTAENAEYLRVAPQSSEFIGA

The IC50 is the point on the concentration scale where inhibition reaches its midpoint. Read a high IC50 as a need for much substance. `COc1cc(Nc2ncnc(Nc3cccc(F)c3)n2)cc(OC)c1OC`: the IC50 was less than 0.4 µg/mL.
For `COc1ccc(Nc2ncnc(N(C)c3cccc(Cl)c3)n2)cc1OC`, the IC50 was less than 0.4 µg/mL.
The figure for `NS(=O)(=O)c1ccc(CNc2ncnc(-n3c(=O)[nH]c4ccccc43)n2)cc1` is more than 4.5 µg/mL.
The figure for `COc1cc(Nc2ncnc(-n3c(=O)sc4cc(Br)ccc43)n2)cc(OC)c1OC` is more than 4.5 µg/mL.
`Fc1ccc(CNc2ncccc2-c2ncnc(Nc3ccc(N4CCOCC4)cc3)n2)cc1` yielded an IC50 of more than 4.5 µg/mL.
The figure for `COc1ccc(Nc2ncnc(Nc3ccc(N4CCCCC4)cc3)n2)cc1OC` is 0.4 to 2.4 µg/mL (≈ 0.984 to 5.9 µM).
The figure for `COc1cc(Nc2ncnc(-n3c(=O)sc4ccccc43)n2)cc(OC)c1OC` is more than 4.5 µg/mL.
Molecule `Nc1ncnc(Nc2cccc(Nc3ncnc(N)n3)c2)n1` came in with an IC50 of more than 4.5 µg/mL.
With `COc1cc(Nc2ncnc(Nc3cccc(CC(=O)O)c3)n2)cc(OC)c1OC` the figure was less than 0.4 µg/mL; with `COc1cc(Nc2ncnc(-n3cc(OC(C)=O)c4ccccc43)n2)cc(OC)c1OC`, more than 4.5 µg/mL.
With `Nc1nc2ccccc2n1-c1ncnc(Nc2cccc(CC(=O)O)c2)n1` the figure was more than 4.5 µg/mL; with `CCOC(=O)Cc1ccc(Nc2ncnc(-c3ccccc3)n2)cc1`, more than 4.5 µg/mL; with `COc1cc(Nc2ncnc(Nc3ccc(NCc4ccccc4)cc3)n2)cc(OC)c1OC`, more than 4.5 µg/mL.
Take `COc1cc(Nc2ncnc(-n3c(=O)oc4ccccc43)n2)cc(OC)c1OC`: the 50% inhibitory concentration (IC50) was in the range of 0.4 to 2.4 µg/mL (≈ 1.01 to 6.07 µM).
Regarding `Nc1ncnc(Nc2ccc3c(c2)OCO3)n1`, the half-inhibitory concentration (IC50) was 3.5 to 4.5 µg/mL (≈ 15.1 to 19.5 µM).
The figure for `COc1cc(Nc2ncnc(Nc3ccc4cn[nH]c4c3)n2)cc(OC)c1OC` is 0.4 to 2.4 µg/mL (≈ 1.02 to 6.1 µM).
With `OCCCNc1ncnc(-c2ccccc2)n1` the figure was more than 4.5 µg/mL; with `Clc1cccc(Nc2ncnc(Nc3ccc4[nH]ncc4c3)n2)c1`, less than 0.4 µg/mL; with `Oc1ccc(Nc2ncnc(-c3ccccc3)n2)cc1`, more than 4.5 µg/mL.
The figure for `COc1cc(Nc2ncnc(Oc3ccc(OCc4ccccc4)cc3)n2)cc(OC)c1OC` is more than 4.5 µg/mL.
`Nc1ncnc(Nc2nc(-c3ccc(Cl)cc3)cs2)n1` displayed an IC50 of more than 4.5 µg/mL.
As to `COc1cc(Nc2ncnc(-n3c(N[C@@H](CO)c4ccccc4)nc4ccccc43)n2)cc(OC)c1OC`, the IC50 was in the range of 0.4 to 2.4 µg/mL (≈ 0.779 to 4.67 µM).
In the case of `COc1cccc(NC(=O)Nc2ncnc(Nc3cc(OC)c(OC)c(OC)c3)n2)c1`, the IC50 is more than 4.5 µg/mL.
The figure for `COc1cc(Nc2ncnc(Nc3cc(Cl)ccc3C)n2)cc(OC)c1OC` is less than 0.4 µg/mL.
The figure for `COc1ccc(Nc2ncnc(-n3c(=O)[nH]c4ccccc43)n2)cn1` is more than 4.5 µg/mL; for `COc1ccc(Nc2ncnc(Nc3ccc(Br)cc3F)n2)cc1OC` it is 2.4 to 3.5 µg/mL (≈ 5.71 to 8.33 µM); for `COc1cc(Nc2ncnc(-n3c(NCc4ccccn4)nc4ccccc43)n2)cc(OCCN2CCOCC2)c1OC` it is more than 4.5 µg/mL.
In turn, `COC(=O)c1cc(OC)c(OC)cc1Nc1ncnc(-n2c(N)nc3ccccc32)n1` came in with an IC50 of more than 4.5 µg/mL.
Regarding `COC(=O)c1ccc(Nc2ncnc(-c3ccccc3)n2)cc1`, the half-inhibitory concentration (IC50) is more than 4.5 µg/mL.
`COc1ccc(Nc2ncnc(Nc3ccc4c(c3)C(=O)OC4)n2)cc1OC` showed an IC50 of 2.4 to 3.5 µg/mL (≈ 6.33 to 9.23 µM).
With `C=CCNc1ncccc1-c1ncnc(Nc2ccc(C(N)=O)cc2)n1` the figure was more than 4.5 µg/mL; with `Cc1cccc(Nc2ncnc(Nc3ccc(O)cc3)n2)c1`, less than 0.4 µg/mL; with `COc1cc(Nc2ncnc(-n3c(NCc4cccs4)nc4ccccc43)n2)cc(OC)c1OC`, 0.4 to 2.4 µg/mL (≈ 0.817 to 4.9 µM).
Take `COC(=O)c1cccc(Nc2ncnc(-n3c(NCc4ccccc4)nc4ccccc43)n2)c1`: the half-inhibitory concentration (IC50) was 0.4 to 2.4 µg/mL (≈ 0.886 to 5.32 µM).
The figure for `Nc1nc2ccccc2n1-c1ncnc(Cl)n1` is more than 4.5 µg/mL; for `COc1ccc(Nc2ncnc(N(C)C3CCN(C)CC3)n2)cc1OC` it is more than 4.5 µg/mL.
`Cc1ccc2c(c1)CCCN2c1ncnc(NCCc2cccnc2)n1`: the IC50 was more than 4.5 µg/mL.
With `COc1ccc(Nc2ncnc(NCc3ccc(C)c(Cl)c3)n2)cc1OC` the figure was more than 4.5 µg/mL.
As for `COC(=O)c1ccc(-c2cc(Nc3ncnc(NCCN4CCNC4=O)n3)[nH]n2)cc1`, the concentration for half-maximal inhibition (IC50) is more than 4.5 µg/mL.
In turn, `COc1ccc(Nc2ncnc(NCC(O)c3ccccc3)n2)cc1OC` (centres undefined) had a concentration for half-maximal inhibition (IC50) of 3.5 to 4.5 µg/mL (≈ 9.53 to 12.2 µM).
The figure for `COc1cc(Nc2ncnc(-c3cccnc3Nc3cccc(C(N)=O)c3)n2)cc(OC)c1OC` is more than 4.5 µg/mL; for `COc1cc(C)c(Nc2ncnc(Nc3cc(-c4ccc(Cl)cc4)n[nH]3)n2)cc1OC` it is 3.5 to 4.5 µg/mL (≈ 7.99 to 10.3 µM); for `COc1cc(Nc2ncnc(Nc3cc(C)[nH]n3)n2)cc(OC)c1OC` it is 3.5 to 4.5 µg/mL (≈ 9.79 to 12.6 µM).
The figure for `Nc1nc2ccccc2n1-c1ncnc(Nc2cccnc2)n1` is 2.4 to 3.5 µg/mL (≈ 7.89 to 11.5 µM); for `COc1cc(Nc2ncnc(-c3ccncc3)n2)cc(OC)c1OC` it is more than 4.5 µg/mL; for `COc1cc(Nc2ncnc(Nc3ccc(F)c(Cl)c3)n2)cc(OC)c1OC` it is less than 0.4 µg/mL.
For the molecule `CCN(CC)C(=O)C1CCCN(c2ncnc(Nc3cc(OC)c(OC)c(OC)c3)n2)C1` (centres undefined), the 50% inhibitory concentration (IC50) was more than 4.5 µg/mL.
Molecule `O=c1[nH]c2ccccc2n1-c1ncnc(Nc2ccncn2)n1` came in with an IC50 of 2.4 to 3.5 µg/mL (≈ 7.84 to 11.4 µM).
The figure for `COc1cc(Nc2ncnc(-n3c(NCc4ccncc4)nc4ccccc43)n2)cc(OC)c1OC` is more than 4.5 µg/mL; for `COc1cc(Nc2ncnc(N3CCN(C)CC3)n2)cc(OC)c1OC` it is more than 4.5 µg/mL.
With `COC(=O)c1ccc(-c2cc(Nc3ncnc(NCc4cccs4)n3)[nH]n2)cc1` the figure was 2.4 to 3.5 µg/mL (≈ 5.89 to 8.59 µM); with `COC(=O)c1sccc1Nc1ncnc(N2CCCc3cc(C)ccc32)n1`, more than 4.5 µg/mL.
As to `COc1cc(Nc2ncnc(-c3cccnc3Nc3ccc(C(F)(F)F)cc3)n2)cc(OC)c1OC`, the concentration for half-maximal inhibition (IC50) is more than 4.5 µg/mL.
For `COc1cc(Nc2ncnc(-c3cccnc3Nc3ccccc3C)n2)cc(OC)c1OC`, the half-maximal inhibitory concentration (IC50) is more than 4.5 µg/mL.
With `CN(c1ccc2c(cnn2Cc2ccccc2)c1)c1ncnc(Nc2cccc(Cn3ccnn3)c2)n1` the figure was less than 0.4 µg/mL.
The molecule `COc1cc(Nc2ncnc(-n3c(Nc4ccccc4C(N)=O)nc4ccccc43)n2)cc(OC)c1OC` registered an IC50 of more than 4.5 µg/mL.
With `COc1cc(Nc2ncnc(-n3cc(CC(N)=O)c4ccccc43)n2)cc(OC)c1OC` the figure was more than 4.5 µg/mL; with `O=C(O)Cc1cccc(Nc2ncnc(-n3c(NCc4ccccc4)nc4ccccc43)n2)c1`, less than 0.4 µg/mL; with `CCOc1ccc(Nc2ncnc(-n3c(N)nc4ccccc43)n2)cc1OCC`, 2.4 to 3.5 µg/mL (≈ 6.13 to 8.94 µM).
With `COc1ccc(CNc2nc3ccccc3n2-c2ncnc(Nc3cccc(Cc4nnn[nH]4)c3)n2)cc1` the figure was 0.4 to 2.4 µg/mL (≈ 0.791 to 4.75 µM).
Consider `NC(=O)c1ccc(Nc2ncnc(Nc3cc(-c4ccco4)n[nH]3)n2)cc1`, for which the IC50 lay in the range of 2.4 to 3.5 µg/mL (≈ 6.62 to 9.66 µM).
Molecule `O=C(O)Cc1cccc(Nc2ncnc(-n3c(NCc4ccccn4)nc4ccccc43)n2)c1` yielded an IC50 of more than 4.5 µg/mL.
For `COc1ccc(Nc2ncnc(N(C)[C@H](C)c3ccccc3)n2)cc1OC`, the IC50 fell in the range of 0.4 to 2.4 µg/mL (≈ 1.09 to 6.57 µM).
As to `CCOc1cccc(Nc2ncnc(Nc3cc(-c4ccc(C(=O)OC)cc4)n[nH]3)n2)c1`, the concentration for half-maximal inhibition (IC50) was more than 4.5 µg/mL.
For `COc1cc(Nc2ncnc(-c3cccnc3Nc3cccc(OCc4ccccc4)c3)n2)cc(OC)c1OC`, the IC50 was 3.5 to 4.5 µg/mL (≈ 6.52 to 8.39 µM).
The figure for `CN(c1cccc(Cl)c1)c1ncnc(Nc2ccc3nn(Cc4ccccc4)cc3c2)n1` is less than 0.4 µg/mL; for `COc1cc(Nc2ncnc(-c3ccc(NCCCN)nc3)n2)cc(OC)c1OC` it is more than 4.5 µg/mL; for `COc1cc(Nc2ncnc(Nc3cccc4ccccc34)n2)cc(OC)c1OC` it is less than 0.4 µg/mL.
In turn, `OCCCNc1cc(-c2ncnc(Nc3cccc(OC(F)(F)C(F)F)c3)n2)ccn1` displayed an IC50 of more than 4.5 µg/mL.
